According to patent US20130243847A1, “ACTIVATED CREATININE AND PRECURSORS THEREOF AS ANTIBACTERIAL AGENTS, COMPOSITIONS AND PRODUCTS CONTAINING SUCH AGENTS AND USE THEREOF” (BOARD OF REGENTS OF THE UNIVERSITY OF NEBRASKA, priority 2010, published 2013):
Entries after “also recorded” stand apart in the source; their conditions may differ.

Tests used:
Assay type in all cases: cell-based
S. aureus [1] = assay: Growth in Lederberg's broth with CEE at different concentrations (Example 3, FIG. 2A); details: inoculum 10^4/mL, 37° C., absorbance over time
Procedure: The CEE precursor of antibacterially-activated CRN was diluted at different concentrations into Lederberg's broth (LB), which was then inoculated to 10^4/mL with S. aureus. The cultures were incubated in capped plastic tubes at 37° C. and aerated by tumbling using a tube rotating device.

Rhodotorula sp. = assay: Selective growth on LBD, mixture of S. aureus and Rhodotorula sp. (Example 12, FIG. 11B); details: 200-400 mM CEE in LBD, 37° C., 36 hours
Procedure: (§1) Colonies of S. aureus and Rhodotorula sp. grown on LB agar supplemented with 1% dextrose (LBD) were suspended in PBS to 0.30 A580 nm. An equal volume of the two organisms was combined and the mixture streaked onto wells containing only LBD (None) or LBD supplemented with a precursor of antibacterially-activated CRN, CEE, and incubated at 37° C. for 36 hours.

S. aureus [2] = assay: as above; details: 37° C., 36 hours
Procedure: as §1

S. aureus UAMS-1 = assay: Bactericidal test in overnight culture (Example 5, FIG. 4); details: 200 mM
Procedure: S. aureus UAMS-1 was started from a static overnight, grown for 3 hours, then 0.2 mL was added to 3 different 50 mL cultures for control, CRN and CEE. These were shaken 30 min. at 37° C., an aliquot was removed prior to the addition of a precursor of antibacterially-activated CRN, CEE, or antibacterially-activated CRN, and the starting titer was determined. Powdered CEE or crystal CRN was added directly to the 50 mL cultures to a final concentration of 200 mM. The cultures were shaken overnight and the absorbance (A) and colony forming units (cfu) were determined.

[3] = test system: Enterococcus faecium vancomycin resistant (VRE); assay: Disc diffusion assay, CEE vs gentamicin; details: E. faecium VRE; 50 mg anhydrous topical cream with 28% by weight agent; gentamicin 10 μg disc
Procedure: (§2) This testing involved the use of 50 mg of an anhydrous topical cream containing the antibacterial agent of the invention in an amount of 28% by weight and 10 μg of gentamicin, impregnated into a standard commercially available disc (Remel, Lenoxa Kans.).

[4] = test system: Escherichia coli laboratory strain 35150; assay: Disc diffusion assay, CEE vs gentamicin; details: E. coli laboratory strain 35150; 50 mg anhydrous topical cream with 28% by weight agent; gentamicin 10 μg disc
Procedure: as §2

[5] = test system: Brevibacterium linens ATCC 9175; assay: Disc diffusion assay, CEE vs gentamicin; details: B. linens ATCC 9175; 50 mg anhydrous topical cream with 28% by weight agent
Procedure: as §2

[6] = test system: Staphylococcus epidermidis laboratory strain; assay: Disc diffusion assay, CEE vs gentamicin; details: S. epidermidis laboratory strain; 50 mg anhydrous topical cream with 28% by weight agent
Procedure: as §2

[7] = test system: Enterococcus faecalis laboratory strain 29212; assay: Disc diffusion assay, CEE vs gentamicin; details: E. faecalis laboratory strain 29212; 50 mg anhydrous topical cream with 28% by weight agent; gentamicin 10 μg disc
Procedure: as §2

[8] = test system: Rhodotorula sp. laboratory isolate; assay: Disc diffusion assay, CEE vs gentamicin; details: 50 mg anhydrous topical cream with 28% by weight agent
Procedure: as §2

[9] = test system: Pseudomonas fluorescens laboratory strain; assay: Disc diffusion assay, CEE vs gentamicin; details: P. fluorescens laboratory strain; 50 mg anhydrous topical cream with 28% by weight agent
Procedure: as §2

[10] = test system: Staphylococcus aureus UMSA-1 isolate; assay: Disc diffusion assay, CEE vs gentamicin; details: S. aureus UMSA-1 isolate; 50 mg anhydrous topical cream with 28% by weight agent
Procedure: as §2

[11] = test system: Bacillus cereus laboratory strain; assay: Disc diffusion assay, CEE vs gentamicin; details: B. cereus laboratory strain; 50 mg anhydrous topical cream with 28% by weight agent
Procedure: as §2

[12] = test system: Staphylococcus aureus methicillin resistant (MRSA); assay: Disc diffusion assay, CEE vs gentamicin; details: S. aureus MRSA; 50 mg anhydrous topical cream with 28% by weight agent; gentamicin 10 μg disc
Procedure: as §2

[13] = test system: Pseudomonas aeruginosa high level resistance (HLR); assay: Disc diffusion assay, CEE vs gentamicin; details: P. aeruginosa HLR; 50 mg anhydrous topical cream with 28% by weight agent; gentamicin 10 μg disc
Procedure: as §2

[14] = test system: Staphylococcus aureus laboratory strain 29213; assay: Disc diffusion assay, CEE vs gentamicin; details: S. aureus laboratory strain 29213; 50 mg anhydrous topical cream with 28% by weight agent; gentamicin 10 μg disc
Procedure: as §2

[15] = test system: Bacillus subtilis laboratory strain; assay: Disc diffusion assay, CEE vs gentamicin; details: B. subtilis laboratory strain; 50 mg anhydrous topical cream with 28% by weight agent
Procedure: as §2

[16] = test system: Pseudomonas aeruginosa laboratory strain 27853; assay: Disc diffusion assay, CEE vs gentamicin; details: P. aeruginosa laboratory strain 27853; 50 mg anhydrous topical cream with 28% by weight agent; gentamicin 10 μg disc
Procedure: as §2

[17] = test system: Candida albicans laboratory strain 24433; assay: Disc diffusion assay, CEE vs gentamicin; details: C. albicans laboratory strain 24433; 50 mg anhydrous topical cream with 28% by weight agent; gentamicin 10 μg disc
Procedure: as §2

[18] = test system: Saccharomyces sp. isolate from baker's yeast; assay: Disc diffusion assay, CEE vs gentamicin; details: 50 mg anhydrous topical cream with 28% by weight agent
Procedure: as §2

[19] = test system: Acinetobacter baumannii high level resistance (HLR); assay: Disc diffusion assay, CEE vs gentamicin; details: A. baumannii HLR; 50 mg anhydrous topical cream with 28% by weight agent; gentamicin 10 μg disc
Procedure: as §2

[20] = test system: Micrococcus luteus laboratory isolate; assay: Disc diffusion assay, CEE vs gentamicin; details: M. luteus laboratory isolate; 50 mg anhydrous topical cream with 28% by weight agent
Procedure: as §2

## CCOC(=O)CN(C)C(=N)N [CEE, creatine ethyl ester]
S. aureus [1]
  concentration that inhibited growth of S. aureus: approximately 32 mM
Rhodotorula sp.
  growth of Rhodotorula: did not retard growth
S. aureus [2]; 100 mM CEE in LBD
  growth of Staphylococcus: retarded
S. aureus [2]; 200 mM CEE and greater in LBD
  growth of Staphylococcus: completely inhibited
S. aureus UAMS-1; overnight culture, 48 hours incubation of plates, control 3×10^9 per mL
  colonies from 1 mL of treated culture plated on solid media: no colonies
S. aureus UAMS-1; starting at about 1×10^3 organisms per mL
  bactericidal action for S. aureus: bacteriocidal; also recorded: bactericidal
[3]
  Zone of Inhibition: 18 mm
[4]
  Zone of Inhibition: 15 mm
[5]
  Zone of Inhibition: 40 mm
[6]
  Zone of Inhibition: 27 mm
[7]
  Zone of Inhibition: 19 mm
[8]
  Zone of Inhibition: 0 mm
[9]
  Zone of Inhibition: 18 mm
[10]
  Zone of Inhibition: 24 mm
[11]
  Zone of Inhibition: 22 mm
[12]
  Zone of Inhibition: 27 mm
[13]
  Zone of Inhibition: 25 mm
[14]
  Zone of Inhibition: 26 mm
[15]
  Zone of Inhibition: 20 mm
[16]
  Zone of Inhibition: 27 mm
[17]
  Zone of Inhibition: 0 mm
[18]
  Zone of Inhibition: 0 mm
[19]
  Zone of Inhibition: 16 mm
[20]
  Zone of Inhibition: 22 mm
